The term IC50 denotes the point on the concentration scale where inhibition reaches its midpoint.

In this experiment the target is T1, mouse TRPM3α2 (mTRPM3) ion channel (Mus musculus, UniProt J9SQF3).
T1 construct: expressed in transfected cells; host or cells: flip-in HEK293
T1 sequence (J9SQF3 1-1709 isoform J9SQF3-12): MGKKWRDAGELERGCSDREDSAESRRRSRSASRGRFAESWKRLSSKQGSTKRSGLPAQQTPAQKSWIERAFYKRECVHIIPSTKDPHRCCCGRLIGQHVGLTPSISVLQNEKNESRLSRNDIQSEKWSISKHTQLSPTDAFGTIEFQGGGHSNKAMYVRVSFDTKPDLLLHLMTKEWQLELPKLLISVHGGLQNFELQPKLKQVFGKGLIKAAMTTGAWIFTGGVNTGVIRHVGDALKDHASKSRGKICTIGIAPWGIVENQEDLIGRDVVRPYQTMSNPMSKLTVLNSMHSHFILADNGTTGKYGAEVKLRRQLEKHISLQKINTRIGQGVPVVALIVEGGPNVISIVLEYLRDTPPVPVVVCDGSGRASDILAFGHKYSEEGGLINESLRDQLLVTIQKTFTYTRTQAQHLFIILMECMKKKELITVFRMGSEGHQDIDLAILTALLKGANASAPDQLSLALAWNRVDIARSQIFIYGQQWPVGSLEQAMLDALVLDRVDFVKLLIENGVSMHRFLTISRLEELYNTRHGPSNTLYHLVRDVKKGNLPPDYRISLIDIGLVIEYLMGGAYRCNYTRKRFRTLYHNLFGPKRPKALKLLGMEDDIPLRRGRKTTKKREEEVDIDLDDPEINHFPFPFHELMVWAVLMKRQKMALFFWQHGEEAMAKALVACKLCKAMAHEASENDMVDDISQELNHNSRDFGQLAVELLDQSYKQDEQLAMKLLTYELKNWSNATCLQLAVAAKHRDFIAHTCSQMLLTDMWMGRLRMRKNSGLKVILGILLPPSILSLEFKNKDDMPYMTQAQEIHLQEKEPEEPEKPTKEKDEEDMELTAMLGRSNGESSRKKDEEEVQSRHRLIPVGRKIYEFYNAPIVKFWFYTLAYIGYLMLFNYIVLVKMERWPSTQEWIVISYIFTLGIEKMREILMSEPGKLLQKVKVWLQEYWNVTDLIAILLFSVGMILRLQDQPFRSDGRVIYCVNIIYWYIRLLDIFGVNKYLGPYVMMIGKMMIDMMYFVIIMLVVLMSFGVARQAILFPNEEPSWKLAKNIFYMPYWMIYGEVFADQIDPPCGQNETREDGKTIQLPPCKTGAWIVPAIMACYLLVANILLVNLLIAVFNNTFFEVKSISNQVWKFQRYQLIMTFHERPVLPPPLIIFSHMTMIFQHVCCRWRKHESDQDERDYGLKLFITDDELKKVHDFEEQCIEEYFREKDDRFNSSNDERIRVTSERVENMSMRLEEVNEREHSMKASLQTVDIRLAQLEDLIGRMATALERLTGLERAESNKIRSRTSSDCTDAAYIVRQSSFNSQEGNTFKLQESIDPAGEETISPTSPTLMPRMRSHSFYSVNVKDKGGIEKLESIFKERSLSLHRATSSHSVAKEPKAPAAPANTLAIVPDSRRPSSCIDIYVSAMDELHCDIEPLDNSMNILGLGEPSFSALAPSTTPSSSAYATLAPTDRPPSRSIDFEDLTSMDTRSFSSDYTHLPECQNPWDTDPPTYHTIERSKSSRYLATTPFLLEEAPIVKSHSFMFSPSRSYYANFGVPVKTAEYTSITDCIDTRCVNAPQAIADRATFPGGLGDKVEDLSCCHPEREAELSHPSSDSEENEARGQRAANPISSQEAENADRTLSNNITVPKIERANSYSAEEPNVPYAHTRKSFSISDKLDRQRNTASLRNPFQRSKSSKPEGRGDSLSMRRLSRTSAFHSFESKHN
The experiment can be described thus: TRPM3 ion channel driven Ca2+ uptake, Fluo-4 AM assay, mTRPM3alpha2 overexpressing flip-in HEK293 cells stimulated with pregnenolone sulfate (50 μM). Format: cell-based. The conditions noted are these: mTRPM3 overexpressing HEK293 cells stimulated with pregnenolone sulfate (50 μM), activity ranges A, B, C. The method in brief: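 Flip-in HEK293 cells overexpressing mTRPM3α2, loaded with Fluo-4 AM, added at ±2000 cells/well to plates holding compound plus 50 μM pregnenolone sulfate in Ca2+-containing Krebs buffer. Fluorescence (ex 485/em 535 nm) read immediately. Percent inhibition normalised between vehicle and positive-control inhibitor; IC50 derived.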
With `Cn1nc2ccc(OCc3cccnc3C(F)(F)F)cc2c1C(=O)NC1(CO)CCOCC1` [Cpd 029, N-[4-(hydroxymethyl)oxan-4-yl]-2-methyl-5-{[2-(trifluoromethyl)pyridin-3-yl]methoxy}-2H-indazole-3-carboxamide], the half-maximal inhibitory concentration (IC50) is 1 to 20 µM.

Consider `Cn1nccc1COc1ccc2nn(C)c(C(=O)NC3(C(N)=O)COC3)c2c1` [Cpd 030, N-(3-carbamoyloxetan-3-yl)-2-methyl-5-[(1-methyl-1H-pyrazol-5-yl)methoxy]-2H-indazole-3-carboxamide], for which the IC50 is > 20 µM.

Regarding `Cc1ncsc1COc1ccc2nn(C)c(C(=O)NC3(C(N)=O)COC3)c2c1` [Cpd 031, N-(3-carbamoyloxetan-3-yl)-2-methyl-5-[(4-methyl-1,3-thiazol-5-yl)methoxy]-2H-indazole-3-carboxamide], the half-maximal inhibitory concentration (IC50) lay within 1 to 20 µM.

The compound `Cc1ncsc1COc1ccc2nn(C)c(C(=O)NC3CN(C)CC3(F)F)c2c1` (centres unmarked) [Cpd 032, N-(4,4-difluoro-1-methylpyrrolidin-3-yl)-2-methyl-5-[(4-methyl-1,3-thiazol-5-yl)methoxy]-2H-indazole-3-carboxamide] registered an IC50 of 1 to 20 µM.

`Cn1nc2ccc(OCc3ccccc3)cc2c1C(=O)NC1(C(N)=O)CCC1` [Cpd 033, 5-(benzyloxy)-N-(1-carbamoylcyclobutyl)-2-methyl-2H-indazole-3-carboxamide] registered a 50% inhibitory concentration (IC50) of 1 to 20 µM.

The compound `CN1CC(NC(=O)c2c3cc(OCc4ccccc4)ccc3nn2C)C(F)(F)C1` (centres unmarked) [Cpd 034, 5-(benzyloxy)-N-(4,4-difluoro-1-methylpyrrolidin-3-yl)-2-methyl-2H-indazole-3-carboxamide] came in with an IC50 of 1 to 20 µM.

`Cn1nccc1COc1ccc2nn(C)c(C(=O)NCc3cccc(O)n3)c2c1` [Cpd 035, N-[(6-hydroxypyridin-2-yl)methyl]-2-methyl-5-[(1-methyl-1H-pyrazol-5-yl)methoxy]-2H-indazole-3-carboxamide] returned a concentration for half-maximal inhibition (IC50) of 1 to 20 µM.

`Cn1nc2ccc(OCc3cccnc3C(F)(F)F)cc2c1C(=O)NCc1cccc(O)n1` [Cpd 036, N-[(6-hydroxypyridin-2-yl)methyl]-2-methyl-5-{[2-(trifluoromethyl)pyridin-3-yl]methoxy}-2H-indazole-3-carboxamide] came in with a 50% inhibitory concentration (IC50) of 1 to 20 µM.

As for `Cc1ncsc1COc1ccc2nn(C)c(C(=O)NC3CCN(CCO)C3=O)c2c1` (centres unmarked) [Cpd 037, N-[1-(2-hydroxyethyl)-2-oxopyrrolidin-3-yl]-2-methyl-5-[(4-methyl-1,3-thiazol-5-yl)methoxy]-2H-indazole-3-carboxamide], the IC50 is > 20 µM.

In the case of `Cn1nc2ccc(OCc3ccccc3)cc2c1C(=O)NC1CCN(CCO)C1=O` (centres unmarked) [Cpd 038, 5-(benzyloxy)-N-[1-(2-hydroxyethyl)-2-oxopyrrolidin-3-yl]-2-methyl-2H-indazole-3-carboxamide], the IC50 fell in the range of 1 to 20 µM.

`Cn1nccc1COc1ccc2nn(C)c(C(=O)NC3CCN(CCO)C3=O)c2c1` (centres unmarked) [Cpd 039, N-[1-(2-hydroxyethyl)-2-oxopyrrolidin-3-yl]-2-methyl-5-[(1-methyl-1H-pyrazol-5-yl)methoxy]-2H-indazole-3-carboxamide]: the IC50 is > 20 µM.

`CN1CCC(NC(=O)c2c3cc(OCc4cccnc4C(F)(F)F)ccc3nn2C)C1` (centres unmarked) [Cpd 040, 2-methyl-N-(1-methylpyrrolidin-3-yl)-5-{[2-(trifluoromethyl)pyridin-3-yl]methoxy}-2H-indazole-3-carboxamide] registered an IC50 of 1 to 20 µM.

Turning to `Cn1nc2ccc(OCc3ccccc3)cc2c1C(=O)NC1(C(N)=O)COC1` [Cpd 041, 5-(benzyloxy)-N-(3-carbamoyloxetan-3-yl)-2-methyl-2H-indazole-3-carboxamide], the IC50 fell in the range of 1 to 20 µM.

The compound `CN(C)C1(CNC(=O)c2c3cc(OCc4cccnc4C(F)(F)F)ccc3nn2C)CCC1` [Cpd 042, N-{[1-(dimethylamino)cyclobutyl]methyl}-2-methyl-5-{[2-(trifluoromethyl)pyridin-3-yl]methoxy}-2H-indazole-3-carboxamide] gave an IC50 of 1 to 20 µM.

As to `Cc1ncsc1COc1ccc2nn(C)c(C(=O)NC3(CO)CCC3)c2c1` [Cpd 043, N-[1-(hydroxymethyl)cyclobutyl]-2-methyl-5-[(4-methyl-1,3-thiazol-5-yl)methoxy]-2H-indazole-3-carboxamide], the IC50 was in the range of 1 to 20 µM.

`Cn1nccc1COc1ccc2nn(C)c(C(=O)NC3(CO)CCC3)c2c1` [Cpd 044, N-[1-(hydroxymethyl)cyclobutyl]-2-methyl-5-[(1-methyl-1H-pyrazol-5-yl)methoxy]-2H-indazole-3-carboxamide] returned an IC50 of 1 to 20 µM.

In the case of `Cn1nc2ccc(OCc3ccccc3)cc2c1C(=O)NCCN1CCOC1=O` [Cpd 045, 5-(benzyloxy)-2-methyl-N-[2-(2-oxo-1,3-oxazolidin-3-yl)ethyl]-2H-indazole-3-carboxamide], the IC50 is > 20 µM.

`CN(C)C1(CNC(=O)c2c3cc(OCc4ccnn4C)ccc3nn2C)CCC1` [Cpd 046, N-{[1-(dimethylamino)cyclobutyl]methyl}-2-methyl-5-[(1-methyl-1H-pyrazol-5-yl)methoxy]-2H-indazole-3-carboxamide] came in with a 50% inhibitory concentration (IC50) of 1 to 20 µM.

In turn, `Cc1ncsc1COc1ccc2nn(C)c(C(=O)NC3(CO)CC3)c2c1` [Cpd 047, N-[1-(hydroxymethyl)cyclopropyl]-2-methyl-5-[(4-methyl-1,3-thiazol-5-yl)methoxy]-2H-indazole-3-carboxamide] registered an IC50 of 1 to 20 µM.

Compound `Cc1ncsc1COc1ccc2nn(C)c(C(=O)NC3(CCO)CCC3)c2c1` [Cpd 048, N-[1-(2-hydroxyethyl)cyclobutyl]-2-methyl-5-[(4-methyl-1,3-thiazol-5-yl)methoxy]-2H-indazole-3-carboxamide] registered a 50% inhibitory concentration (IC50) of 1 to 20 µM.

As to `Cn1nccc1COc1ccc2nn(C)c(C(=O)NCC(C)(C)N3CCOCC3)c2c1` [Cpd 049, 2-methyl-5-[(1-methyl-1H-pyrazol-5-yl)methoxy]-N-[2-methyl-2-(morpholin-4-yl)propyl]-2H-indazole-3-carboxamide], the IC50 is > 20 µM.

For `Cn1nccc1COc1ccc2nn(C)c(C(=O)NC3CCN(CC(F)(F)F)C3)c2c1` (centres unmarked) [Cpd 050, 2-methyl-5-[(1-methyl-1H-pyrazol-5-yl)methoxy]-N-[1-(2,2,2-trifluoroethyl)pyrrolidin-3-yl]-2H-indazole-3-carboxamide], the half-inhibitory concentration (IC50) is 1 to 20 µM.

Take `Cn1nc2ccc(OCc3ccccc3)cc2c1C(=O)NC1(CCO)CCC1` [Cpd 051, 5-(benzyloxy)-N-[1-(2-hydroxyethyl)cyclobutyl]-2-methyl-2H-indazole-3-carboxamide]: the IC50 lay within 1 to 20 µM.

Take `Cc1ncsc1COc1ccc2nn(C)c(C(=O)NCCN3CCOC3=O)c2c1` [Cpd 053, 2-methyl-5-[(4-methyl-1,3-thiazol-5-yl)methoxy]-N-[2-(2-oxo-1,3-oxazolidin-3-yl)ethyl]-2H-indazole-3-carboxamide]: the IC50 is > 20 µM.

`Cn1nc2ccc(OCc3cccnc3C(F)(F)F)cc2c1C(=O)NCC1CCC(=O)N1` (centres unmarked) [Cpd 054, 2-methyl-N-[(5-oxopyrrolidin-2-yl)methyl]-5-{[2-(trifluoromethyl)pyridin-3-yl]methoxy}-2H-indazole-3-carboxamide] gave a half-maximal inhibitory concentration (IC50) of 1 to 20 µM.

Consider `Cn1nccc1COc1ccc2nn(C)c(C(=O)NCCN3CCOC3=O)c2c1` [Cpd 055, 2-methyl-5-[(1-methyl-1H-pyrazol-5-yl)methoxy]-N-[2-(2-oxo-1,3-oxazolidin-3-yl)ethyl]-2H-indazole-3-carboxamide], for which the IC50 lay in the range of 1 to 20 µM.

`Cc1ncsc1COc1ccc2nn(C)c(C(=O)NC3CCN(CC(F)(F)F)C3)c2c1` (centres unmarked) [Cpd 057, 2-methyl-5-[(4-methyl-1,3-thiazol-5-yl)methoxy]-N-[1-(2,2,2-trifluoroethyl)pyrrolidin-3-yl]-2H-indazole-3-carboxamide]: the IC50 lay within 1 to 20 µM.

For `Cn1nccc1COc1ccc2nn(C)c(C(=O)NC3(CO)CCOCC3)c2c1` [Cpd 058, N-[4-(hydroxymethyl)oxan-4-yl]-2-methyl-5-[(1-methyl-1H-pyrazol-5-yl)methoxy]-2H-indazole-3-carboxamide], the IC50 is > 20 µM.

In turn, `Cn1nc2ccc(OCc3ccccc3)cc2c1C(=O)NC1CCN(CC(F)(F)F)C1` (centres unmarked) [Cpd 060, 5-(benzyloxy)-2-methyl-N-[1-(2,2,2-trifluoroethyl)pyrrolidin-3-yl]-2H-indazole-3-carboxamide] returned a half-maximal inhibitory concentration (IC50) of 1 to 20 µM.

Compound `Cn1nccc1COc1ccc2nn(C)c(C(=O)NC3(C(N)=O)CCC3)c2c1` [Cpd 061, N-(1-carbamoylcyclobutyl)-2-methyl-5-[(1-methyl-1H-pyrazol-5-yl)methoxy]-2H-indazole-3-carboxamide] registered an IC50 of 1 to 20 µM.

Regarding `Cn1nccc1COc1ccc2nn(C)c(C(=O)NC3CCNC3=O)c2c1` (centres unmarked) [Cpd 062, 2-methyl-5-[(1-methyl-1H-pyrazol-5-yl)methoxy]-N-(2-oxopyrrolidin-3-yl)-2H-indazole-3-carboxamide], the 50% inhibitory concentration (IC50) is > 20 µM.

`Cc1ncsc1COc1ccc2nn(C)c(C(=O)NCC3CCC(=O)N3)c2c1` (centres unmarked) [Cpd 063, 2-methyl-5-[(4-methyl-1,3-thiazol-5-yl)methoxy]-N-[(5-oxopyrrolidin-2-yl)methyl]-2H-indazole-3-carboxamide] gave an IC50 of 1 to 20 µM.

Compound `Cc1ncsc1COc1ccc2nn(C)c(C(=O)NC3CCNC3=O)c2c1` (centres unmarked) [Cpd 064, 2-methyl-5-[(4-methyl-1,3-thiazol-5-yl)methoxy]-N-(2-oxopyrrolidin-3-yl)-2H-indazole-3-carboxamide] gave a concentration for half-maximal inhibition (IC50) of 1 to 20 µM.

`Cn1nc2ccc(OCc3cccnc3C(F)(F)F)cc2c1C(=O)NC1(CCO)CCC1` [Cpd 065, N-[1-(2-hydroxyethyl)cyclobutyl]-2-methyl-5-{[2-(trifluoromethyl)pyridin-3-yl]methoxy}-2H-indazole-3-carboxamide] yielded an IC50 of 1 to 20 µM.

Consider `Cn1nc2ccc(OCc3ccccc3)cc2c1C(=O)NCC1CCC(=O)N1` (centres unmarked) [Cpd 066, 5-(benzyloxy)-2-methyl-N-[(5-oxopyrrolidin-2-yl)methyl]-2H-indazole-3-carboxamide], for which the IC50 is > 20 µM.
